Values of other authors, collected in patent publication US20170281506A1, “COMPOSITION FOR TOPICAL APPLICATION FOR PREVENTING HAIR LOSS AND STIMULATING HAIR GROWTH” (priority 2011, published 2017).

Tested on: men
Conditions: oral, treated constantly for two years

CC(C)(C)NC(=O)[C@H]1CC[C@H]2[C@@H]3CC[C@H]4NC(=O)C=C[C@]4(C)[C@H]3CC[C@]12C [Finasteride, finasteride]
participants who maintained or increased the number of hairs after the treatment: 83%
participants who showed no hair loss: 17%
